One assay deals with T1, KRas G12C (Homo sapiens, UniProt P01116, G12C).
T1 construct: Biotinylated KRas (corresponding to amino acids 1-169, produced at Accelegan Inc.); biotin (biotinylated); purchased Accelegan Inc
The assay is described as follows: KRas binding assay, TR-FRET displacement of Cy5 labelled tracer. To be noted: 60-minute incubation at room temperature, 1% DMSO, pH 7.5. The method, boiled down:
(§1)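 Compound competes with tracer for biotin-labelled KRas (amino acids 1-169) bound to terbium-streptavidin. Incubation runs 60 minutes at room temperature, final DMSO 1%. IC50 values derive from a 4-parameter fit.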

The target of another assay is T2, KRas G12S (Homo sapiens, UniProt P01116, G12S).
T2 construct: Biotinylated KRas (corresponding to amino acids 1-169, produced at Accelegan Inc.); biotin (biotinylated); purchased Accelegan Inc
T2 sequence (P01116 1-169 isoform P01116-2 G12S): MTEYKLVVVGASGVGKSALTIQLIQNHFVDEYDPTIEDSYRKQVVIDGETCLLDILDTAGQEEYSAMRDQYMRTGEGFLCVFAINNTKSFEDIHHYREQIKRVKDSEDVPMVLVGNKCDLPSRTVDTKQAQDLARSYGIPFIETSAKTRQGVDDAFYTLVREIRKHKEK
The assay is described as above. To be noted: 60-minute incubation at room temperature, 1% DMSO, pH 7.5. The method, boiled down: as §1

The next assay has as its target T3, KRas WT (Homo sapiens, UniProt P01116).
T3 construct: Biotinylated KRas (corresponding to amino acids 1-169, produced at Accelegan Inc.); biotin (biotinylated); purchased Accelegan Inc
Described as above. To be noted: 60-minute incubation at room temperature, 1% DMSO, pH 7.5. The method, boiled down:
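Assay buffer was HEPES (50 mM, pH 7.5) with MgCl2 (5 mM), DTT (1 mM) and Tween-20 (0.005%). Biotinylated KRas spanning residues 1-169 met tracer, terbium streptavidin and compound (1% DMSO, final) for 60 minutes at ambient temperature before reading. POC values were fitted for IC50.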

The target of assay [1] is T4, KRas-mediated phosphorylation of ERK in MKN1 cells (Homo sapiens, UniProt P01116).
T4 construct: pERK HTRF read-out
T4 sequence (P01116 1-188 isoform P01116-2): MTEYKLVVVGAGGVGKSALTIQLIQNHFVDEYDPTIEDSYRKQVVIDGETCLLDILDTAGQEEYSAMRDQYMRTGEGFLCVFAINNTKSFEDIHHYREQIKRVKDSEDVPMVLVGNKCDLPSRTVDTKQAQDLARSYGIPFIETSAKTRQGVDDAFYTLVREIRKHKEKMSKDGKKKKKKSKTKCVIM
The assay is described as follows: Inhibition of KRas-mediated phosphorylation of ERK (HTRF), MKN1 cells. To be noted: MKN1 cells (KRas WT); HTRF pERK; 3 h incubation. The assay is classed as cell-based. As to the method:
Inhibition of KRas Phosphorylation of ERK (HTRF) by Exemplary Compounds of Formula (Ia) or (Ib)
Cisbio HTRF Advanced pERK Assay Catalog #64AERPEH • Cells: MKN1, PSN1 • Procedure: • 1. Day 1: Seed 6,000 cells/well −25 μl/well in 384-well white solid bottom plate; RPM1_10% FBS. Incubate overnight at 37 °C/5% CO2. • 2.
(In general: Time-resolved FRET reads energy transfer from a long-lived donor to a nearby acceptor.)

Assay [2] has as its target T5, KRas-mediated phosphorylation of ERK in A549 cells (Homo sapiens, UniProt P01116, G12S).
T5 construct: pERK HTRF read-out
The assay is described as follows: Inhibition of KRas-mediated phosphorylation of ERK (HTRF), A549 cells. Type of assay: cell-based. To be noted: HTRF pERK, 3 h incubation.

This note sets out measurements from US20260356856A1, “KRAS G12S AND G12C INHIBITORS” (MIRATI THERAPEUTICS, INC., priority 2023, published 2026).

One may read the IC50 as the concentration needed to halve the response being measured.

T3 sequence (P01116 1-169 isoform P01116-2): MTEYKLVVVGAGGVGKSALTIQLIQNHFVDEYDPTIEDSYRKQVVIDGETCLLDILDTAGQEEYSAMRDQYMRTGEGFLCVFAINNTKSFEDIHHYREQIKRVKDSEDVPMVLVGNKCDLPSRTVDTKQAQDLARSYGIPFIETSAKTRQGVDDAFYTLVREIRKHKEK
T5 sequence (P01116 1-188 isoform P01116-2 G12S): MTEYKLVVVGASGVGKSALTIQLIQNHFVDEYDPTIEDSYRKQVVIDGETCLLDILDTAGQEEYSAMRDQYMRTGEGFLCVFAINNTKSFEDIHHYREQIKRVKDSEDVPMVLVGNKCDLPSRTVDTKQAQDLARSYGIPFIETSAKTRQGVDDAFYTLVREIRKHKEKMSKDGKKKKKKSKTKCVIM
T1 sequence (P01116 1-169 isoform P01116-2 G12C): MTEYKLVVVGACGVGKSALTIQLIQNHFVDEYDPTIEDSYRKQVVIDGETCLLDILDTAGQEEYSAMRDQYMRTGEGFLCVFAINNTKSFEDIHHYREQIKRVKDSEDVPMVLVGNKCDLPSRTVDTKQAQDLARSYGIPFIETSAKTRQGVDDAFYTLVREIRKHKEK

For the compound `CCc1c(F)ccc2cc(O)cc(-c3ncc4c(N5CCCC6CC6(C(=O)n6ccc(C)n6)CC5)nc(OC[C@@]56CCCN5C[C@H](F)C6)nc4c3F)c12` (stereo partly drawn) [Example 117, (4-(7-(8-ethyl-7-fluoro-3-hydroxynaphthalen-1-yl)-8-fluoro-2-(((2R,7aS)-2-fluorotetrahydro-1H-pyrrolizin-7a(5H)-yl)methoxy)pyrido[4,3-d]pyrimidin-4-yl)-4-azabicyclo[6.1.0]nonan-1-yl)(3-methyl-1H-pyrazol-1-yl)methanone], the IC50 worked out at 129 nM on KRas G12C; 158 nM on KRas G12S; 68 nM on KRas WT; 333 nM in assay [1]; 4050 nM in assay [2].
As to `CCc1c(F)ccc2cc(O)cc(-c3ncc4c(N5C[C@@H]6[C@H](C5)[C@H]6C(=O)n5ccc(C)n5)nc(OC[C@@]56CCCN5C[C@H](F)C6)nc4c3F)c12` [Example 118, ((1R,5S,6S)-3-(7-(8-ethyl-7-fluoro-3-hydroxynaphthalen-1-yl)-8-fluoro-2-(((2R,7aS)-2-fluorotetrahydro-1H-pyrrolizin-7a(5H)-yl)methoxy)pyrido[4,3-d]pyrimidin-4-yl)-3-azabicyclo[3.1.0]hexan-6-yl)(3-methyl-1H-pyrazol-1-yl)methanone], the IC50 on KRas G12C was determined as 591 nM; at KRas G12S it was 437 nM; at KRas WT, 873 nM; in assay [1] it was 5750 nM; in assay [2] it was 7840 nM.
Consider `CCc1c(F)ccc2cc(O)cc(-c3ncc4c(N5CC(C(=O)n6ccc(C)n6)C6(CC6)C5)nc(OC[C@@]56CCCN5C[C@H](F)C6)nc4c3F)c12` (stereo partly drawn) [Example 119, (5-(7-(8-ethyl-7-fluoro-3-hydroxynaphthalen-1-yl)-8-fluoro-2-(((2R,7aS)-2-fluorotetrahydro-1H-pyrrolizin-7a(5H)-yl)methoxy)pyrido[4,3-d]pyrimidin-4-yl)-5-azaspiro[2.4]heptan-7-yl)(3-methyl-1H-pyrazol-1-yl)methanone], for which the IC50 was 171 nM at KRas G12C; 183 nM at KRas G12S; 402 nM at KRas WT; greater than 10000 nM in assay [1]; greater than 10000 nM in assay [2].
In the case of `CCc1c(F)ccc2cc(O)cc(-c3ncc4c(N5CC6C(CC(=O)n7ccc(C)n7)C6C5)nc(OC[C@@]56CCCN5C[C@H](F)C6)nc4c3F)c12` (stereo partly drawn) [Example 120, 2-(3-(7-(8-ethyl-7-fluoro-3-hydroxynaphthalen-1-yl)-8-fluoro-2-(((2R,7aS)-2-fluorotetrahydro-1H-pyrrolizin-7a(5H)-yl)methoxy)pyrido[4,3-d]pyrimidin-4-yl)-3-azabicyclo[3.1.0]hexan-6-yl)-1-(3-methyl-1H-pyrazol-1-yl) ethan-1-one], the IC50 was 142 nM on KRas G12C; 186 nM at KRas G12S; 1210 nM on KRas WT; 5380 nM in assay [1]; 229 nM in assay [2].
As to `CCc1c(F)ccc2cc(O)cc(-c3ncc4c(NCCC(=O)n5ccc(C)n5)nc(OC[C@@]56CCCN5C[C@H](F)C6)nc4c3F)c12` [Example 122, 3-((7-(8-ethyl-7-fluoro-3-hydroxynaphthalen-1-yl)-8-fluoro-2-(((2R,7aS)-2-fluorotetrahydro-1H-pyrrolizin-7a(5H)-yl)methoxy)pyrido[4,3-d]pyrimidin-4-yl)amino)-1-(3-methyl-1H-pyrazol-1-yl) propan-1-one], the IC50 at KRas G12C is 9 nM; on KRas G12S it was 5 nM; on KRas WT, 19 nM; in assay [1] it was 342 nM; in assay [2], 38 nM.
Take `Cc1ccn(C(=O)C2CCCN(c3nc(OC[C@@]45CCCN4C[C@H](F)C5)nc4c(F)c(-c5ccc(F)c6sc(N)c(C#N)c56)c(Cl)cc34)CCC2)n1` [Example 134, 2-amino-4-(6-chloro-8-fluoro-2-(((2R,7aS)-2-fluorotetrahydro-1H-pyrrolizin-7a(5H)-yl)methoxy)-4-(5-(3-methyl-1H-pyrazole-1-carbonyl)azocan-1-yl)quinazolin-7-yl)-7-fluorobenzo[b]thiophene-3-carbonitrile]: the IC50 at KRas G12C was 59 nM; at KRas G12S it was 46 nM; on KRas WT it was 21 nM; in assay [1], 187 nM; in assay [2], 1840 nM.
